In patent US20260248809A1, “ESTRADIOL PRODRUGS AND METHODS OF USE THEREOF” (UNIVERSITY OF MARYLAND, BALTIMORE, priority 2022, published 2026):

What was measured:
male mice [1] = test: Subthreshold social defeat stress (SSDS) followed by social interaction test; format: in vivo, mouse; details: for stress-induced social interaction deficits: chronic treatment (silastic implant or minipump), orchiectomized male mice + SSDS; for social interaction (sociability) deficits: orchiectomized male mice
Experimental: Subthreshold social defeat stress: Retired CD1 breeders are singly housed and used as aggressors. Experimental mice are introduced to the home cage of an aggressor for 2 min to initiate the physical attack phase. Afterward, mice are transferred and housed on the opposite side of the aggressor, in the same cage separated by a perforated Plexiglass divider for 15 mins in order to maintain sensory contact. This process is repeated 3 times over a period of ~50 min.
(§1) Social Interaction: Mice are placed in a rectangular box (40 cm length×30 cm width×35 cm height; Stoelting, IL) divided into three compartments (two equal-sized end-chambers and a middle chamber) for five minute habituation phase (10-15 lux). After the habituation phase, two small wire cages are introduced into the two end chambers, one containing an unfamiliar, non-aggressive CD1 mouse and the other remaining empty. The amount of time mice spent sniffing each cage during the five-min test is assessed using CleverSys tracking software (CleverSys, Inc, Reston VA, USA).
For the chronic administration paradigms, silastic tubes (1.02 mm inner diameter×2.16 mm outer diameter) were filled with testosterone (10 mm) or 17β-Estradiol (E2; 1,3 and 10 mm; Sigma-Aldrich, St. Louis, MO, USA). Silastic implants were primed in 0.9% saline at 37° C. overnight prior to their subcutaneous use. Letrozole (1 mg/kg/day; Sigma-Aldrich, St. Louis, MO, USA) was dissolved in propylene glycol (MP Biomedicals, Santa Ana, CA, USA) and administered through ALZET minipumps (Model 1002, 0.25 μl/hour, 14 days; Cupertino, CA, USA). DHED (synthesized using previously described methods) was dissolved in 0.9% saline and administered through ALZET minipumps (Model 1002, 0.25 μl/hour, 14 days; Cupertino, CA, USA) at a dose of […]. Flutamide was administered through 1.5 mg slow-release subcutaneous pellets (Innovative Research of America, Sarasota, FL, USA). For acute administration, 17β-Estradiol (E2; 10 and […]) was dissolved in sesame oil (4 ml/kg, s.c.; Sigma-Aldrich, St. Louis, MO, USA).
Retired CD1 breeders were singly housed and used as aggressors. Two days prior to the start of the experiment, experimental mice were also singly housed. The stress procedure was performed using previously described methods. Briefly, experimental mice were introduced to the home cage of an aggressor for 2 min to initiate the physical attack phase. Afterward, mice were transferred and housed on the opposite side of the aggressor, in the same cage separated by a perforated Plexiglass divider for 15 mins in order to maintain sensory contact. This process was repeated 3 times over a period of ~50 min. Following the completion of the third cycle, mice were placed back in their home cages.
Acute E2 was administered 45 min prior to the initiation of stress or 5 min after the completion of stress. For the optogenetic stimulation, ChR2 and YFP-injected mice received a 4 Hz, 5 ms pulse width, 10-15 mW 470 nm light stimulation for 45 min prior to the initiation of stress. This stimulation paradigm was shown previously to increase synaptic transmission. The optogenetic set up consisted of an LED driver paired with a fiber-coupled LED light source attached to a bifurcated optogenetic path cable (400 μm, 0.49 NA; ThorLabs, Newton NJ, USA).
as §1, with “Social interaction was performed 24 hours following subthreshold social defeat or inescapable foot-shock stress. For the habituation phase, mice were” for “Social Interaction: Mice are”, “five minutes” for “five minute habituation phase”, “cages were” for “cages are”, “test was” for “test is”

male mice [2] = test: Stress-moderated acquisition, extinction and reinstatement of fear; format: in vivo, mouse; details: orchiectomized males + subthreshold SDS, 10 mm silastic implant
Text: Determine the role of E2 in stress-moderated acquisition, extinction, and reinstatement of fear responses in males. Animal approaches to study PTSD should include an inescapable severe stressor. These experiments assess interactions between a stress and the effects of E2. […] For either result, it is critical to understand if E2 mediates interactions with stress. This is because the acquisition of fear is an adaptive response that is not considered pathological in and of itself. However, veterans have often encountered stressful circumstances that lead to an exaggerated and pathological state of fear, which is both resistant to extinction and highly susceptible to relapse. Considering that social stress is an important risk factor contributing toward the onset of PTSD in response to a traumatic event, the social defeat stress paradigm is utilized in order to model the conditions under which veterans develop PTSD. […] It is anticipated that sub-threshold SDS (rather than 10 day) paradigm is sufficient to induce effects in orchiectomized mice. […] Mice are assessed for social interaction deficits 24 hours after the subthreshold defeat sessions to determine if they are resilient or susceptible. n=18/mice per group is used to account for only a subset of mice being susceptible to stress. […]

Structure (SMILES) | stress-induced social interaction deficits (male mice [1]) | social interaction (sociability) deficits (male mice [1]; acute administration 5 min after SSDS) | social interaction (sociability) deficits (male mice [1]; acute s.c. administration 45 min prior to SSDS) | stress-susceptible phenotype induced by low testosterone (male mice [1]; orchiectomized mice on low dose testosterone + SSDS) | stress effect on extinction of conditioned fear and reinstatement (male mice [2]) | maladaptive behaviors (social interaction, anhedonia) (male mice [1]; chronic treatment, gonadally intact or non-stressed mice)
C[C@]12CC[C@@H]3c4ccc(O)cc4CC[C@H]3[C@@H]1CC[C@@H]2O [Example E2, 17β-Estradiol] | reversed the stress-induced social avoidance | reversed only the anhedonia phenotype | prevented the development of both sociability deficits | completely recover the phenotype | reversed | 
C[C@]12CC[C@H]3[C@@H](CCC4=CC(=O)CC[C@@]43C)[C@@H]1CC[C@@H]2O [Testosterone, testosterone] | reversed the observed maladaptive behaviors |  |  |  | reversed | no effect
